Laboratory results: patent publication US9708639B2, “Method for quantifying amino acids with pyrophosphate” (TOYAMA PREFECTURE, priority 2012, dated 2017)

Tests used:
Set-up in all cases: key: +: Activity was detected; −: Activity was not detected
Thermotoga-derived TyrRS = target: T1, Thermotoga-derived TyrRS (Thermotoga maritima, UniProt Q9WYU8); test: Qualitative test of AARS substrate specificity (molybdenum blue method); type: biochemical, Thermotoga maritima MSB8 strain; conditions: Tyr 1 mM, other amino acids 5 mM; hydroxylamine 1000 mM; TyrRS 0.2 mg/ml (20 mU/ml); 30° C.
T1 construct: The amplification products were each inserted into pET-28a to obtain plasmids for expression of respective AARSs; His tag (N); made in house; host or cells: Escherichia coli BL21 (DE3)
T1 sequence (Q9WYU8 1-401): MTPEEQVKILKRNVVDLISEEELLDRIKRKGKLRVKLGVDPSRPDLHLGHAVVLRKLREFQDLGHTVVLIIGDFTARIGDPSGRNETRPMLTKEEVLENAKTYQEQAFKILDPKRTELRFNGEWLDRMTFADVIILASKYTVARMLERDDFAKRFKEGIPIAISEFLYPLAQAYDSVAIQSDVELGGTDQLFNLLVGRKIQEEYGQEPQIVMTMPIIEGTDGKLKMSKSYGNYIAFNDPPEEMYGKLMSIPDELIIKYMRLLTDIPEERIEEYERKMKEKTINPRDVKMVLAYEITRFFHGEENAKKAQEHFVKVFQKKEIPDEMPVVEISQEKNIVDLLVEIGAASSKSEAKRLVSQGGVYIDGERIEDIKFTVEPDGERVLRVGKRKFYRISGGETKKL
Description: (§1) A test sample containing an amino acid as the measurement subject and a reaction mixture for quantifying amino acid having the following composition were mixed. The mixture was left standing at 30° C. to allow the AARS reaction to advance. The mixture in a volume of 33 μl, 66 μl of water, and 1 μl of a 300 U/ml yeast pyrophosphatase solution were mixed, and left standing at room temperature for 20 minutes to allow the pyrophosphatase reaction to advance. Then, the reaction mixture was mixed with 100 μl of a color development solution A and 30 μl of a color developing solution B having the following compositions, then the mixture was left standing at room temperature for 5 minutes, and the absorbance was measured at 700 nm or 900 nm with a microplate reader.
(§2) Reaction mixture for quantifying amino acid: 20 mM Tris-HCl (pH 7.0), 5 mM MgCl2, 2 mM ATP, and AARS (concentrations are final concentrations obtained after mixing with test sample)
(§3) Color developing solution A: A solution obtained by mixing water and concentrated sulfuric acid at a ratio of 3:1 and dissolving (NH4)6Mo7O24.4H2O in the mixture at a concentration of 0.066 g/ml
(§4) Color developing solution B: A solution obtained by mixing water and concentrated sulfuric acid at a ratio of 10000:7 and dissolving FeSO4.7H2O in the mixture at a concentration of 145 mg/ml
(§5) Presence or absence of pyrophosphate generation was verified for the Thermotoga-derived CysRS, HisRS, LysRS, ProRS, SerRS, TrpRS, and TyrRS by using the AARS activity measurement method described in 9. and standard solutions of the various amino acids as test samples. AARSs were added to the reaction mixture at final concentrations of 0.3 (8 mU/ml), 0.1, 0.2 (3 mU/ml), 0.2, 0.1 (1 mU/ml), 0.1, 0.2 (20 mU/ml) mg/ml, respectively. The reaction mixtures were prepared so that the final concentration of Tyr was 1 mM, and the final concentrations of the other amino acids were 5 mM. As for the hydroxylamine concentration, it was added at a final concentration of 1000 mM for all the cases. Further, presence or absence of pyrophosphate production was also verified for the Thermus-derived MetRS and TyrRS by using the AARS activity measurement method described in 10. and standard solutions of the various amino acids as test samples. The reaction mixtures were prepared so that the final concentrations of the amino acids were 200 μM. Hydroxylamine was added at a final concentration of 400 mM.
(§6) Detection or no detection of the activity in the reaction mixtures containing a combination of each AARS and amino acid are shown in Table 2. The symbol + indicates detection of the activity, and − indicates no detection of the activity.

Thermotoga-derived TrpRS = target: T2, Thermotoga-derived TrpRS (Thermotoga maritima, UniProt Q9WYW2); test: as above; type: biochemical, Thermotoga maritima MSB8 strain; conditions: Tyr 1 mM, other amino acids 5 mM; hydroxylamine 1000 mM; TrpRS 0.1 mg/ml; 30° C.
T2 construct: His tag (C); made in house; host or cells: Escherichia coli BL21 (DE3)
T2 sequence (Q9WYW2 1-328): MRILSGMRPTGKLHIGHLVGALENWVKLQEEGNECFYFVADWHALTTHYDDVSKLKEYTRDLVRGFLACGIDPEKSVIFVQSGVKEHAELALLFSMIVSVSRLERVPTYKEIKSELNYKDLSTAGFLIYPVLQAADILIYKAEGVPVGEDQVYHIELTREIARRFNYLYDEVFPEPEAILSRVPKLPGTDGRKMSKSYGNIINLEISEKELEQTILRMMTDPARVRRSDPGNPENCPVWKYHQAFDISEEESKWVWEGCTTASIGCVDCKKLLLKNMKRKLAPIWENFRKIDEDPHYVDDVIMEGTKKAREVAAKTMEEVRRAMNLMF
Description: as §1, §2, §3, §4, §5, §6

Thermotoga-derived SerRS = target: T3, Thermotoga-derived SerRS (Thermotoga maritima, UniProt Q9X199); test: as above; type: biochemical, Thermotoga maritima MSB8 strain; conditions: Tyr 1 mM, other amino acids 5 mM; hydroxylamine 1000 mM; SerRS 0.1 mg/ml (1 mU/ml); 30° C.
T3 construct: His tag (C); made in house; host or cells: Escherichia coli BL21 (DE3)
Description: as §1, §2, §3, §4, §5, §6

Thermus-derived TyrRS = target: T4, Thermus-derived TyrRS (Thermus thermophilus, UniProt P83453); test: Qualitative test of AARS substrate specificity (AARS activity at 70° C.); type: biochemical, Thermus thermophilus HB8 strain; conditions: amino acids 200 μM, hydroxylamine 400 mM
T4 construct: host or cells: Escherichia coli BL21 (DE3)
Description: (§7) A test sample containing an amino acid as the measurement subject and a reaction mixture for quantifying amino acid having the following composition were mixed. The mixture was left standing at 70° C. to allow the AARS reaction to advance. The mixture in a volume of 600 μl, 60 μl of a 1 M 2-mercaptoethanol solution, and 240 μl of the color development solution mentioned below were mixed, then the mixture was left standing at room temperature for 20 minutes, and the absorbance was measured at 580 nm in a cuvette having an optical path length of 1 cm.
(§8) Reaction mixture for quantifying amino acid: 20 mM HEPES-NaOH (pH 8.0), 5 mM MgCl2, 0.5 mM ATP, and AARS (concentrations are final concentrations obtained after mixing with test sample)
(§9) Color developing solution: A solution obtained by mixing water and concentrated sulfuric acid at a ratio of 6:1 and dissolving (NH4)6Mo7O24.4H2O in the mixture at a concentration of 0.025 g/ml
as §5, §6

Thermus-derived MetRS = target: T5, Thermus-derived MetRS (Thermus thermophilus, UniProt P23395); test: as above; type: biochemical, Thermus thermophilus HB8 strain; conditions: amino acids 200 μM, hydroxylamine 400 mM
T5 construct: host or cells: Escherichia coli BL21 (DE3)
Description: as §7, §8, §9, §5, §6

T3 sequence (Q9X199 whole entry): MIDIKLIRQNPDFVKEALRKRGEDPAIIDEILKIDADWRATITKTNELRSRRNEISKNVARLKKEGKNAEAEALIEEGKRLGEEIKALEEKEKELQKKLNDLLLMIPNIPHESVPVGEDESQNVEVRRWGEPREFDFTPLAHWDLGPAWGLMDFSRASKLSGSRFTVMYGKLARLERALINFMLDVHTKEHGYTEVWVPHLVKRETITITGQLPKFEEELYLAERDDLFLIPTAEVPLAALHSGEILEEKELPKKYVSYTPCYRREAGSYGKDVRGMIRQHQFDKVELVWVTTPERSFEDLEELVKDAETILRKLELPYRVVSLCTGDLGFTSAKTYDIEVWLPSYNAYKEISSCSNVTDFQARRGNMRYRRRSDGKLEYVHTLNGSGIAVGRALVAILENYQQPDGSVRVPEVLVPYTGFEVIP
T5 sequence (P23395 whole entry): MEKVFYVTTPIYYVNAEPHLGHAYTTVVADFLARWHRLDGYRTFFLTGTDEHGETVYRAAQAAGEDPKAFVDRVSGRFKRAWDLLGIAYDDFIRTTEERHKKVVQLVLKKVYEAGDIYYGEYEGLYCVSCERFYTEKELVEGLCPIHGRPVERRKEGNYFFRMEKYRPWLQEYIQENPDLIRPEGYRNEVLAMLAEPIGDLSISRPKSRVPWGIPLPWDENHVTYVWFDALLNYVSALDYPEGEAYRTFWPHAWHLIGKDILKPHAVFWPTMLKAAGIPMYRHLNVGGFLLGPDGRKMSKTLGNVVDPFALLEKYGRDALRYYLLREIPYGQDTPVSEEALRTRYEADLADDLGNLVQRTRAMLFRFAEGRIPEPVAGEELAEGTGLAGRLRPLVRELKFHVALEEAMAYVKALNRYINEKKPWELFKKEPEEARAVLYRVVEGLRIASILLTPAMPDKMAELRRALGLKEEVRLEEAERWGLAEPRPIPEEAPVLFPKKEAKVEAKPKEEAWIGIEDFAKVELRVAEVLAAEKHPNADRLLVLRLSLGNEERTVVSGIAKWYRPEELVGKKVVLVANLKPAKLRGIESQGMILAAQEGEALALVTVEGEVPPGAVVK
T4 sequence (P83453 whole entry): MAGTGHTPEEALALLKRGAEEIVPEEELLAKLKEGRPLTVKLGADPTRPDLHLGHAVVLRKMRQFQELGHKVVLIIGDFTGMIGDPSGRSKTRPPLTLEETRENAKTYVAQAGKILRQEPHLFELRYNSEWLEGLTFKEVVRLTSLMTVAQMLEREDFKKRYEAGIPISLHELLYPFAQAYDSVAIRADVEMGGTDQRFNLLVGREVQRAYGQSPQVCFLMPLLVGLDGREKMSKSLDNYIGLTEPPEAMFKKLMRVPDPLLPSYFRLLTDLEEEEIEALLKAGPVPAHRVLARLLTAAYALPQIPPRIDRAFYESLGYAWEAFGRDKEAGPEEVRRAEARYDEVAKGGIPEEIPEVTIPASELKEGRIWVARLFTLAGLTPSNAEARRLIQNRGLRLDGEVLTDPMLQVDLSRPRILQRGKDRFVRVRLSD

| Structure (SMILES) | Detection of the activity (pyrophosphate generation), TyrRS (Thermotoga) (Thermotoga-derived TyrRS) | Detection of the activity (pyrophosphate generation), TrpRS (Thermotoga-derived TrpRS) | Detection of the activity (pyrophosphate generation), SerRS (Thermotoga-derived SerRS) | Detection of the activity (pyrophosphate production), TyrRS (Thermus) (Thermus-derived TyrRS) | Detection of the activity (pyrophosphate production), MetRS (Thermus) (Thermus-derived MetRS) |
| --- | --- | --- | --- | --- | --- |
| C[C@H](N)C(=O)O [Ala, L-alanine] | − | − | − | − | − |
| N=C(N)NCCC[C@H](N)C(=O)O [Arg, L-arginine] | − | − | − | − | − |
| NC(=O)C[C@H](N)C(=O)O [Asn, L-asparagine] | − | − | − | − | − |
| N[C@@H](CC(=O)O)C(=O)O [Asp, L-aspartic acid] | − | − | − | − | − |
| N[C@@H](CS)C(=O)O [Cys, L-cysteine] | − | − | − | − | − |
| NC(=O)CC[C@H](N)C(=O)O [Gln, L-glutamine] | − | − | − | − | − |
| N[C@@H](CCC(=O)O)C(=O)O [Glu, L-glutamic acid] | − | − | − | − | − |
| NCC(=O)O [Gly, glycine] | − | − | − | − | − |
| N[C@@H](Cc1c[nH]cn1)C(=O)O [His, L-histidine] | − | − | − | − | − |
| CC[C@H](C)[C@H](N)C(=O)O [Ile, L-isoleucine] | − | − | − | − | − |
| CC(C)C[C@H](N)C(=O)O [Leu, L-leucine] | − | − | − | − | − |
| NCCCC[C@H](N)C(=O)O [Lys, L-lysine] | − | − | − | − | − |
| CSCC[C@H](N)C(=O)O [Met, L-methionine] | − | − | − | − | + |
